Measured values from ChEMBL document CHEMBL1201862, “PubChem BioAssay data set” (2004).
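A five-concentration, 48-hour dose response in 96-well plates underlies each endpoint, interpolated linearly between surrounding concentrations. At the GI50, growth is halved.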 The source made the active and inactive calls. No stated cut-off is given here; in the data, active = GI50 up to about 1.1 µM and inactive = higher.

Tests used:
Assay in all cases: NCI anticancer screen, dose series, 48 h
NCI-H522 = tested on: NCI-H522
SW-620 = tested on: SW-620
SK-MEL-5 = tested on: SK-MEL-5
MCF7 = tested on: MCF7
SNB-19 = tested on: SNB-19
SF-268 = tested on: SF-268
HCC 2998 = tested on: HCC 2998
NCI-H460 = tested on: NCI-H460
SK-OV-3 = tested on: SK-OV-3
T47D = tested on: T47D
HOP-92 = tested on: HOP-92
786-0 = tested on: 786-0
CAKI-1 = tested on: CAKI-1
OVCAR-3 = tested on: OVCAR-3
LOX IMVI = tested on: LOX IMVI
MDA-MB-435 = tested on: MDA-MB-435
UACC-257 = tested on: UACC-257
OVCAR-4 = tested on: OVCAR-4
RPMI-8226 = tested on: RPMI-8226
HL-60 = tested on: HL-60

Measured: GI50

CN(Cc1cccc2ccsc12)/N=C\c1ccc(Cl)cc1
inactive: NCI-H522 51.3 µM | SW-620 80.2 µM | SK-MEL-5 15.5 µM | MCF7 32.7 µM | SNB-19 > 100 µM | SF-268 > 100 µM | HCC 2998 49.3 µM | NCI-H460 > 100 µM | SK-OV-3 > 100 µM | T47D 49.5 µM | HOP-92 > 100 µM | 786-0 > 100 µM | CAKI-1 > 100 µM | OVCAR-3 10.6 µM | LOX IMVI > 100 µM | MDA-MB-435 49.3 µM | UACC-257 18.8 µM | OVCAR-4 46.1 µM

CN(C)C1C(CO)OC(n2cnc3c(N)ncnc32)C1O (configuration not stated)
inactive: NCI-H522 > 100 µM | SW-620 > 100 µM | SK-MEL-5 > 100 µM | MCF7 > 100 µM | SNB-19 > 100 µM | SF-268 > 100 µM | RPMI-8226 > 100 µM | NCI-H460 > 100 µM | HL-60 > 100 µM | SK-OV-3 > 100 µM | T47D > 100 µM | 786-0 > 100 µM | CAKI-1 > 100 µM | OVCAR-3 > 100 µM | LOX IMVI > 100 µM | MDA-MB-435 > 100 µM | UACC-257 > 100 µM | OVCAR-4 > 100 µM

COc1cc(C(c2c(O)c3ccccc3oc2=O)c2c(O)c3ccccc3oc2=O)cc(Br)c1O
inactive: NCI-H522 12.9 µM | SW-620 20.6 µM | SK-MEL-5 16.3 µM | MCF7 16.2 µM | SNB-19 18.6 µM | SF-268 13.8 µM | RPMI-8226 19.8 µM | HL-60 27.7 µM | SK-OV-3 20.1 µM | T47D 22.8 µM | HOP-92 12.5 µM | 786-0 17.7 µM | CAKI-1 15.7 µM | OVCAR-3 15.9 µM | LOX IMVI 16 µM | MDA-MB-435 20.3 µM | UACC-257 17.3 µM | OVCAR-4 15.4 µM

CC(=O)OC1C(Oc2c(C)cc3c(c2O)[C@@H](C)CC[C@@H]3[C@@H](C)CCC=C(C)C)OCC(O)C1O (some centres not stated)
inactive: NCI-H522 21.2 µM | SW-620 18.7 µM | SK-MEL-5 18.1 µM | MCF7 20.9 µM | SNB-19 19.6 µM | SF-268 18.2 µM | NCI-H460 16.9 µM | HL-60 21.4 µM | SK-OV-3 19.3 µM | T47D 22.4 µM | 786-0 18.4 µM | CAKI-1 19.5 µM | OVCAR-3 15.7 µM | LOX IMVI 18.2 µM | MDA-MB-435 14.6 µM | UACC-257 18.4 µM

CNC(=O)C1(C#N)C(c2ccccc2)C(C#N)(C(=O)NC)C1c1ccccc1 (configuration not stated)
inactive: NCI-H522 > 100 µM | SW-620 > 100 µM | SK-MEL-5 > 100 µM | MCF7 > 100 µM | SNB-19 27.4 µM | SF-268 > 100 µM | HCC 2998 > 100 µM | RPMI-8226 87.1 µM | NCI-H460 > 100 µM | SK-OV-3 > 100 µM | T47D > 100 µM | HOP-92 > 100 µM | 786-0 > 100 µM | CAKI-1 > 100 µM | OVCAR-3 > 100 µM | LOX IMVI > 100 µM | MDA-MB-435 > 100 µM | OVCAR-4 > 100 µM

COc1ccc(C(=O)/C=C/c2ccc(OCCCCCCCCCCOc3ccc(/C=C/C(=O)c4ccc(OC)cc4)cc3)cc2)cc1
inactive: SW-620 > 100 µM | SK-MEL-5 > 100 µM | MCF7 > 100 µM | SNB-19 > 100 µM | SF-268 > 100 µM | HCC 2998 > 100 µM | RPMI-8226 > 100 µM | NCI-H460 > 100 µM | HL-60 > 100 µM | SK-OV-3 > 100 µM | T47D > 100 µM | 786-0 > 100 µM | CAKI-1 > 100 µM | MDA-MB-435 > 100 µM | UACC-257 > 100 µM | OVCAR-4 > 100 µM

CN(C)C1C(O)=C(C(=O)NCN2CCCC2)C(=O)C2(O)C(O)=C3C(=O)c4c(O)cccc4C(C)(O)C3CC12 (configuration not stated)
inactive: NCI-H522 > 100 µM | SW-620 > 100 µM | SK-MEL-5 > 100 µM | MCF7 54.6 µM | SNB-19 > 100 µM | SF-268 > 100 µM | RPMI-8226 > 100 µM | HL-60 > 100 µM | SK-OV-3 > 100 µM | T47D > 100 µM | HOP-92 > 100 µM | 786-0 > 100 µM | CAKI-1 > 100 µM | OVCAR-3 > 100 µM | LOX IMVI > 100 µM | MDA-MB-435 34.5 µM | UACC-257 69.2 µM | OVCAR-4 > 100 µM

Cc1ccc(S(=O)(=O)NC(CCC(=O)NNc2ccccc2)C(=O)NNc2ccccc2)cc1 (configuration not stated)
inactive: NCI-H522 > 100 µM | SW-620 6.65 µM | SK-MEL-5 98.4 µM | MCF7 23.1 µM | SNB-19 > 100 µM | SF-268 46.8 µM | RPMI-8226 5.58 µM | NCI-H460 16.8 µM | HL-60 > 100 µM | SK-OV-3 > 100 µM | T47D 5.47 µM | HOP-92 > 100 µM | 786-0 > 100 µM | CAKI-1 > 100 µM | OVCAR-3 54.6 µM | LOX IMVI > 100 µM | MDA-MB-435 > 100 µM | UACC-257 15.1 µM | OVCAR-4 25.8 µM

Cc1nc2ccc(NC3OC(CO)C(O)C(O)C3O)cc2c(=O)n1-c1ccccc1 (configuration not stated)
inactive: NCI-H522 > 100 µM | SW-620 > 100 µM | SK-MEL-5 58.3 µM | MCF7 > 100 µM | SNB-19 > 100 µM | SF-268 > 100 µM | HCC 2998 > 100 µM | RPMI-8226 > 100 µM | NCI-H460 > 100 µM | HL-60 > 100 µM | T47D > 100 µM | 786-0 > 100 µM | CAKI-1 > 100 µM | OVCAR-3 > 100 µM | LOX IMVI > 100 µM | MDA-MB-435 > 100 µM | UACC-257 > 100 µM | OVCAR-4 > 100 µM

COc1cc2c(cc1O)NC(=O)[C@@H]1CCCN1C2=O
inactive: NCI-H522 > 100 µM | SW-620 > 100 µM | SK-MEL-5 > 100 µM | MCF7 > 100 µM | SNB-19 > 100 µM | SF-268 > 100 µM | HCC 2998 > 100 µM | RPMI-8226 > 100 µM | NCI-H460 > 100 µM | SK-OV-3 > 100 µM | T47D > 100 µM | HOP-92 > 100 µM | 786-0 > 100 µM | CAKI-1 > 100 µM | OVCAR-3 > 100 µM | LOX IMVI > 100 µM | MDA-MB-435 > 100 µM | UACC-257 > 100 µM | OVCAR-4 > 100 µM

O=c1[nH]nc(-c2ccccc2)n1/N=C/c1ccccc1O
inactive: NCI-H522 42.7 µM | SW-620 > 100 µM | SK-MEL-5 47.8 µM | MCF7 > 100 µM | SNB-19 35.5 µM | SF-268 80.2 µM | HCC 2998 > 100 µM | RPMI-8226 > 100 µM | NCI-H460 > 100 µM | SK-OV-3 22.9 µM | T47D > 100 µM | HOP-92 67.3 µM | 786-0 29.2 µM | CAKI-1 > 100 µM | OVCAR-3 59.4 µM | LOX IMVI > 100 µM | MDA-MB-435 > 100 µM | UACC-257 > 100 µM | OVCAR-4 28.6 µM
